Source: patent US9611230B2, “1,3,4-oxadiazole benzoic acid compounds and their use for nonsense suppression and the treatment of disease” (PTC Therapeutics, Inc., priority 2004, dated 2017)

Row | SMILES | melting point
1 | CN(C)c1cccc(-c2nnc(-c3cccc(C(=O)O)c3)o2)c1 [Compound 2] | 187 to 189 °C
2 | CN(C)c1cccc(-c2nnc(-c3ccc(C(=O)O)cc3)o2)c1 [Compound 3] | 247 to 248 °C
3 | CN(C)c1ccc(-c2nnc(-c3cccc(C(=O)O)c3)o2)cc1 [Compound 4] | 268 to 270 °C
4 | CC(C)c1ccc(-c2nnc(-c3ccc(C(=O)O)cc3)o2)cc1 [Compound 5] | 262 to 265 °C
5 | CC(C)c1ccc(-c2nnc(-c3cccc(C(=O)O)c3)o2)cc1 [Compound 6, 3-[5-(4-isopropylphenyl)-[1,3,4]oxadiazol-2-yl]benzoic acid] | 202 to 204 °C
6 | CC(C)c1cccc(-c2nnc(-c3ccc(C(=O)O)cc3)o2)c1 [Compound 7] | 227 to 229 °C
7 | CS(=O)(=O)Nc1cccc(-c2nnc(-c3ccc(C(=O)O)cc3)o2)c1 [Compound 12] | > 270 °C
8 | Cc1ccc(S(=O)(=O)Nc2cccc(-c3nnc(-c4ccc(C(=O)O)cc4)o3)c2)cc1 [Compound 13, 4-{5-[3-(toluene-4-sulfonylamino)phenyl]-[1,3,4]oxadiazol-2-yl}benzoic acid] | > 275 °C
9 | CC(=O)Nc1cccc(-c2nnc(-c3ccc(C(=O)O)cc3)o2)c1 [Compound 14] | > 275 °C
10 | O=C(O)c1cccc(-c2nnc(-c3ccc(N4CCCCC4)cc3)o2)c1 [Compound 83] | 275 to 277 °C
11 | O=C(O)c1cccc(-c2nnc(-c3ccc(N4CCN(c5ccccc5)CC4)cc3)o2)c1 [Compound 84] | 279 to 282 °C
12 | CN(C)c1ccc(Cc2nnc(-c3cccc(C(=O)O)c3)o2)cc1 [Compound 85] | 220 to 222 °C
13 | CN(C)c1ccc(Cc2nnc(-c3ccc(C(=O)O)cc3)o2)cc1 [Compound 86] | 243 to 245 °C
14 | CC(C)(C)c1ccc(-c2nc(-c3ccc(C(=O)O)cc3)no2)cc1 [Compound 141] | 237 to 239 °C
15 | O=C(O)c1cccc(-c2nnc(-c3ccc(Cl)nc3)o2)c1 [Compound 222] | 278 to 282 °C
16 | CN(C)c1ccc(-c2nnc(-c3cccc(C(=O)O)c3)o2)cn1 [Compound 223] | 272 to 274 °C
17 | CN(C)c1cc(-c2nnc(-c3ccc(C(=O)O)cc3)o2)ccn1 [Compound 224] | 240 to 250 °C
18 | O=C(O)c1ccc(-c2nnc(-c3ccnc(Cl)c3)o2)cc1 [Compound 225] | > 285 °C
19 | O=C(O)c1cccc(-c2nnc(-c3ccc(Cl)nc3Cl)o2)c1 [Compound 272] | 205 to 208 °C
20 | CN(C)C(=O)c1ccc(-c2nnc(-c3ccc(C(=O)O)cc3)o2)cc1 [Compound 278] | > 310 °C
21 | CN(C)C(=O)c1ccc(-c2nnc(-c3cccc(C(=O)O)c3)o2)cc1 [Compound 279] | 228 to 235 °C
22 | O=C(O)c1cccc(-c2nnc(-c3ccc(N4CCCC4)cc3)o2)c1 [Compound 280] | 274 to 276 °C
23 | Cc1cccc(-c2ccc(-c3nnc(-c4cccc(C(=O)O)c4)o3)cn2)c1 [Compound 282] | 274 to 275 °C
24 | CC(C)c1ccc(NC(=O)c2nnc(-c3cccc(C(=O)O)c3)o2)cc1 [Compound 283] | 220 to 226 °C
25 | CC(C)c1ccc(NC(=O)c2nnc(-c3ccc(C(=O)O)cc3)o2)cc1 [Compound 284] | 282 to 291 °C
26 | O=C(O)c1cccc(-c2nnc(-c3ccc(C(=O)N4CCCCC4)cc3)o2)c1 [Compound 285] | 253 to 256 °C

Row | SMILES | melting point
27 | O=C(O)c1ccc(-c2nnc(-c3ccc(C(=O)N4CCCCC4)cc3)o2)cc1 [Compound 286] | > 310 °C
28 | CC(C)c1ccc(-c2cc(-c3cccc(C(=O)O)c3)no2)cc1 [Compound 290] | 222 to 225 °C
29 | CC(C)c1ccc(-c2cc(-c3cccc(C(=O)O)c3)on2)cc1 [Compound 291] | 200 to 212 °C
30 | O=C(O)c1ccc(-c2nnc(-c3ccnc(Br)c3)o2)cc1 [Compound 292] | 275 to 278 °C
31 | O=C(O)c1cccc(-c2nnc(-c3ccc(Br)nc3)o2)c1 [Compound 293] | 274 to 275 °C
32 | O=C(O)c1cccc(-c2nnc(-c3cc4ccccc4[nH]3)o2)c1 [Compound 315] | > 310 °C
33 | O=C(O)c1cccc(-c2nnc(-c3ccc4[nH]ccc4c3)o2)c1 [Compound 316] | > 270 °C
34 | O=C(O)c1cccc(-c2nnc(-c3ccc4cc[nH]c4c3)o2)c1 [Compound 317] | > 290 °C (dec.)
35 | O=C(O)c1cccc(-c2nnc(-c3cccc4[nH]ccc34)o2)c1 [Compound 318] | > 310 °C
36 | O=C(O)c1cccc(-c2nnc(-c3c[nH]c4ccccc34)o2)c1 [Compound 319] | 304 to 320 °C
37 | CC(C)c1ccc(-c2nnc(-c3cccc(C(=O)O)c3Cl)o2)cc1 [Compound 401] | 152 to 155 °C
38 | COc1ccc(-c2nnc(-c3ccc(C(C)C)cc3)o2)cc1C(=O)O [Compound 402] | 174 to 177 °C
39 | O=C(O)c1cccc(-c2cc(-c3ccccc3F)on2)c1 [Compound 463] | 221 to 222 °C
40 | COC(=O)c1cccc(-c2cc(-c3ccccc3F)on2)c1 [Compound 464] | 112 to 113.5 °C
41 | O=C(O)c1cccc(-c2cc(-c3ccccc3)on2)c1 [Compound 477] | 245 to 247 °C
42 | COc1cccc(-c2cc(-c3cccc(C(=O)O)c3)no2)c1 [Compound 481] | 201 to 203 °C
43 | O=C(O)c1cccc(-c2cc(-c3ccc(Br)cc3F)on2)c1 [Compound 482] | 283.5 to 285 °C
44 | O=C(O)c1cccc(-c2noc(-c3ccccc3)c2C(=O)O)c1 [Compound 483] | 255 to 257 °C
45 | O=C(O)c1cccc(-c2noc(-c3ccccc3)c2CO)c1 [Compound 484] | 215 to 216 °C
46 | O=C(O)c1cccc(-c2noc(-c3ccccc3)c2C=NO)c1 [Compound 486] | 198 to 202 °C
47 | N#Cc1c(-c2cccc(C(=O)O)c2)noc1-c1ccccc1 [Compound 487] | 249 to 250 °C
48 | O=C(O)c1cccc(-c2cc(-c3ccc(F)cc3F)no2)c1 [Compound 499] | > 278.5 °C
49 | O=C(O)c1cccc(-c2cc(-c3ccccc3F)no2)c1 [Compound 501] | 231 to 232 °C
50 | O=C(O)c1cccc(-c2nc(-c3ccc4c(c3)OCO4)no2)c1 [Compound 510] | 245 to 246 °C
51 | O=C(O)c1ccc(-c2cc(-c3ccccc3F)on2)cc1 [Compound 529] | 292.5 to 293.5 °C
52 | O=C(O)c1ccc(-c2cc(-c3ccc(F)cc3F)on2)cc1 [Compound 531] | 317 to 319 °C

More lines, now with the values ahead:

Row | melting point | SMILES
53 | 235 to 237 °C | CC(C)c1ccc(-c2coc(-c3cccc(C(=O)O)c3)n2)cc1 [Compound 276]
54 | 309 to 311 °C | O=C(O)c1cccc(-c2nc(-c3ccc(Br)cc3)n[nH]2)c1 [Compound 423]
55 | > 310 °C | O=C(O)c1cccc(-c2nc(-c3ccccc3F)n[nH]2)c1 [Compound 425]
56 | > 310 °C | O=C(O)c1cccc(-c2nc(-c3ccc(F)cc3)n[nH]2)c1 [Compound 426]
57 | > 300 °C | O=C(O)c1cccc(-c2nc(-c3ccccc3)n[nH]2)c1 [Compound 427]
58 | > 310 °C | O=C(O)c1cccc(-c2nc(-c3cccnc3)n[nH]2)c1 [Compound 428]
59 | > 300 °C | O=C(O)c1cccc(-c2nc(-c3ccc(-c4ccccc4)cc3)n[nH]2)c1 [Compound 429]
60 | > 300 °C | O=C(O)c1cccc(-c2nc(-c3ccccc3O)n[nH]2)c1 [Compound 455]
61 | 235 to 238 °C | O=C(O)c1cccc(-c2nc(-c3ccc(C(F)(F)F)cc3)n[nH]2)c1 [Compound 456]
62 | > 300 °C | Cc1ccc(-c2n[nH]c(-c3cccc(C(=O)O)c3)n2)cc1 [Compound 457]
63 | 247 to 250 °C | COc1cccc(-c2n[nH]c(-c3cccc(C(=O)O)c3)n2)c1 [Compound 458]
64 | 287 to 290 °C | COc1ccccc1-c1n[nH]c(-c2cccc(C(=O)O)c2)n1 [Compound 459]
65 | 275 to 278 °C | COc1ccc(-c2n[nH]c(-c3cccc(C(=O)O)c3)n2)cc1OC [Compound 460]
66 | 295 to 298 °C | CCOc1ccc(-c2n[nH]c(-c3cccc(C(=O)O)c3)n2)cc1 [Compound 461]
67 | 282 to 285 °C | O=C(O)c1cccc(-c2nc(-c3cccs3)n[nH]2)c1 [Compound 462]
68 | 242 to 243 °C | O=C(O)c1cccc(-c2cc(-c3cccc(F)c3)on2)c1 [Compound 475]
69 | 266.5 to 268 °C | O=C(O)c1cccc(-c2cc(-c3ccc(F)cc3)on2)c1 [Compound 476]
70 | 260 to 262 °C | O=C(O)c1cccc(-c2cc(-c3ccc(F)cc3F)on2)c1 [Compound 478]
71 | 249.5 to 251 °C | COc1ccc(-c2cc(-c3cccc(C(=O)O)c3)no2)cc1 [Compound 480]
72 | 246 to 247 °C | COc1ccc(-c2cc(-c3cccc(C(=O)O)c3)on2)cc1 [Compound 500]
73 | 264 to 265 °C | O=C(O)c1cccc(-c2cc(-c3cccc(F)c3)no2)c1 [Compound 502]
74 | 273 to 274.5 °C | O=C(O)c1cccc(-c2cc(-c3ccc(F)cc3)no2)c1 [Compound 504]
75 | 253 to 254 °C | Cc1ccc(-c2cc(-c3cccc(C(=O)O)c3)on2)cc1 [Compound 505]
76 | 221.5 to 223 °C | O=C(O)c1cccc(-c2nc(-c3cccc(F)c3)no2)c1 [Compound 507]
77 | 299 to 300 °C | O=C(O)c1cccc(-c2nc(-c3ccc(Cl)cc3)no2)c1 [Compound 508]
78 | 281.5 to 283 °C | COc1ccc(-c2noc(-c3cccc(C(=O)O)c3)n2)cc1 [Compound 509]
79 | 217 to 218 °C | O=C(O)c1cccc(-c2nc(-c3ccc(OC(F)(F)F)cc3)no2)c1 [Compound 511]
80 | 243 to 244 °C | Cc1ccc(-c2noc(-c3cccc(C(=O)O)c3)n2)cc1 [Compound 512]
81 | 249.5 to 251 °C | O=C(O)c1cccc(-c2nc(-c3ccc(C(F)(F)F)cc3)no2)c1 [Compound 513]
82 | 318 to 319 °C | O=C(O)c1ccc(-c2cc(-c3ccc(F)cc3)on2)cc1 [Compound 530]
